Laboratory results reported in patent US20230255873A1, “COSMETIC OR DERMATOLOGICAL PEPTIDE-BASED TREATMENT OF THE SKIN AND ITS INTEGUMENTS” (Sederma, priority 2020, published 2023).
The star is where a group is joined. Palmitoyl = CCCCCCCCCCCCCCCC(=O)*

Assays:
[1] = test system: extracellular lipases of P. acnes; assay: Lipase activity of P. acnes (4-MUO probe); assay type: biochemical, Propionibacterium acnes; conditions: vs solvent control, n = 6
Description: A culture of P. acnes was carried out. The cells were then separated from the culture medium containing the lipases excreted by P. acnes. The peptide of the invention was added to samples of this cell-free medium and lipase activity was monitored using a fluorescent 4-methylumbelliferyl oleate (4-MUO) probe which is converted by lipases to fluorescent 4-methylumbelliferone, and whose signal has been recorded.

[2] = test system: Normal Human Fibroblasts (NHF); assay: Immuno-enzymatic tests on normal human fibroblasts (NHF) culture; assay type: cell-based; conditions: 3 days
Description: 1.3—Immuno-Enzymatic Tests on Normal Human Fibroblasts (NHF) Culture Principle: Normal Human Fibroblasts (NHF) are cultured in 24-well plates for 24 hours in the proliferation medium until confluence. The cells are then brought into contact or not (control case) with the preferred peptide according to the invention for 3 days in a medium without serum. The culture media are collected and the concentrations of various elements of the dermis or the basement membrane (PIP (carboxy-terminal propeptide of procollagen type I), collagen I, collagen IV, fibronectin) are measured by ELISA assays. An estimate of cell viability is also carried out at the end of culture, in order to weight the data from the ELISA, using an assay with the Hoechst 33258 reagent (DNA intercalator). A study of variances and a Student t test for paired series were carried out to judge the significance of the results.

P. acnes = P. acnes growth curve (time to OD600 nm = 0.5); assay type: cell-based, Propionibacterium acnes; conditions: for Time (in hour) to reach OD600 nm = 0.5: vehicle 42-44 h
Description: 1—P. acnes growth curve (same protocol as described above at point 1.4)
P. acnes is thawed and grown over 3 days in M20 media. Then, optical density at 600 nm (OD600) is measured and 2×10^6 CFU*/mL are plated in well plates. P. acnes is then treated with 6 ppm, 9 ppm and 12 ppm of peptides. To follow bacterial cell multiplication, OD600 is measured regularly for about 1 week. […] Statistical evaluations are performed on results using a Student t test. Two independent experiments are performed (N=2).

[3] = test system: P. acnes (strain ATCC6919); assay: Adhesion of P. acnes to a surface; assay type: cell-based, Propionibacterium acnes; conditions: 48 hours and 72 hours, two concentrations tested
Description: […] At the end of the contact plus more or less the peptide, the quantity of isolated cells, not attached, was estimated by an OD at 600 nm.

HaCaTs = assay: Scratch test on HaCaTs (keratinocyte migration, with or without P. acnes); assay type: cell-based, human; conditions: 24 hours after injury
Description: 1.5—Scratch Test on HaCaTs
Principle: HaCats are inoculated in a 6-well plate in a suitable medium until confluence. 24-hour contact with the peptide according to the invention (test cases) or its excipient (control case) in the culture medium is then carried out. After this first step, wounds are made on the cell layers in the experimental wells (with a dedicated tool to make reproducible and small wounds); two wells per case are dedicated to cell counting; rinsing with PBS and an addition of culture medium with or without the peptide according to the invention depending on the case, in the presence or absence of Propionibacterium acnes (100 bacteria for 1 HaCaT cell) are carried out. Photos are taken (to calculate the area of the wound at T0 over a specific area). The cultures are stopped after 24 hours of incubation and photos are taken on the same areas as at T0. A photo processing software (Image J) can calculate for each case the area at T0 and the area recolonized by cells, 24 hours after injury, and establish a ratio.

equivalent skins = assay: Thickness of the stratum corneum on equivalent skins; assay type: cell-based, human; conditions: 2 days of contact, vs control
Description: Equivalent skins were prepared by first manufacturing an equivalent dermis, then once it contracted, human keratinocytes were seeded on the surface of the gel. After 14 days, equivalent skins were obtained, on which carbopol gels containing the peptide of the invention or the solvent alone were applied to their surface. After 2 days of contact, the skins were frozen to be sectioned into thin 7 μm slides and then marked in order to visualize the macrostructure of the layers. A quantification of the thickness of the stratum corneum was carried out on photos using an image software.

[4] = test system: normal human keratinocytes (NHK); assay: Involucrin quantification by immunohistochemistry in NHK; assay type: cell-based; conditions: 5 ppm
Description: Normal human keratinocytes (NHK) are grown on wells plate. When subconfluence was reached, cells received various concentrations of the peptides. After few days, evaluation of differentiation is compared to solvent control under microscope and cells are fixed to allow the study of involucrin by immunohistochemistry.
Involucrin is an early marker of keratinocytes differentiation. The below table show the percentage of variation of involucrin vs. Control.

palmitoyl-lysyl-threonyl-serine-lysyl-serine (Palmitoyl-KTSKS-OH; SMILES CCCCCCCCCCCCCCCC(=O)N[C@@H](CCCCN)C(=O)N[C@H](C(=O)N[C@@H](CO)C(=O)N[C@@H](CCCCN)C(=O)N[C@@H](CO)C(=O)O)[C@@H](C)O) [Pal-KTSKS]
Lipase activity of P. acnes, Variation (%) ([1]; 6 ppm of peptide): −22%; p < 0.01
Lipase activity of P. acnes, Variation (%) ([1]; 9 ppm of peptide): −64%; p < 0.01
Lipase activity of P. acnes, Variation (%) ([1]; 12 ppm of peptide): −88%; p < 0.01
Collagen I Variation %/control ([2]; 8 ppm): +75%; p < 0.01
Collagen IV Variation %/control ([2]; 8 ppm): +18%; p < 0.01
Fibronectin Variation %/control ([2]; 8 ppm): +40%; p < 0.01
Terminal C peptide of pro-collagen I variation %/control ([2]; 8 ppm): +61%; p < 0.01
Collagen I Variation %/control ([2]; 10 ppm): +184%; p < 0.01
Collagen IV Variation %/control ([2]; 10 ppm): +98%; p < 0.01
Fibronectin Variation %/control ([2]; 10 ppm): +67%; p < 0.01
Terminal C peptide of pro-collagen I variation %/control ([2]; 10 ppm): +94%; p < 0.01
Delay in P. acnes growth versus vehicle (P. acnes; 6 ppm): +5 h
Time (in hour) to reach OD600 nm = 0.5 (P. acnes; 6 ppm): 48.8 h
Delay in P. acnes growth versus vehicle (P. acnes; 9 ppm): +11 h
Time (in hour) to reach OD600 nm = 0.5 (P. acnes; 9 ppm): 55.0 h
Delay in P. acnes growth versus vehicle (P. acnes; 12 ppm): +43 h
Time (in hour) to reach OD600 nm = 0.5 (P. acnes; 12 ppm): 87.3 h
Drop in adhesion of P. acnes [3]: more than 83%
Keratinocyte migration, variation compared to the control (HaCaTs; With P. acnes (Reference 2), 5 ppm of peptide): −49.67%
Keratinocyte migration, variation compared to the control (HaCaTs; With P. acnes (Reference 2), 7 ppm of peptide): −66.15%
Keratinocyte migration, variation compared to the control (HaCaTs; Without P. acnes, 5 ppm of peptide): −3% (nsd)
Keratinocyte migration, variation compared to the control (HaCaTs; Without P. acnes, 7 ppm of peptide): −0.36% (nsd)
Thickness of the stratum corneum, Variation (%) (equivalent skins; 8 ppm of peptide in carbopol gel): +150%; p < 0.01
Thickness of the stratum corneum, Variation (%) (equivalent skins; 10 ppm of peptide in carbopol gel): +143%; p < 0.05
Involucrin (% var vs. Control) [4]: +177%; p < 0.01
